# According to patent publication US20230212123A1, “Pyridine Inhibitors of Glucosylceramide Synthase and Therapeutic Methods Using the Same” (THE REGENTS OF THE UNIVERSITY OF MICHIGAN, priority 2020, published 2023):
# What was measured:
# [1] = biological target: T1, glucosylceramide synthase (GCS) (Canis lupus familiaris, UniProt A0A8I3MXG6); test: GCS inhibition in MDCK cell homogenates (Lysate IC50); assay type: biochemical, canine; details: MDCK cell homogenate
# T1 construct: endogenous in cells; host or cells: MDCK cell homogenate
# T1 sequence (A0A8I3MXG6 1-394): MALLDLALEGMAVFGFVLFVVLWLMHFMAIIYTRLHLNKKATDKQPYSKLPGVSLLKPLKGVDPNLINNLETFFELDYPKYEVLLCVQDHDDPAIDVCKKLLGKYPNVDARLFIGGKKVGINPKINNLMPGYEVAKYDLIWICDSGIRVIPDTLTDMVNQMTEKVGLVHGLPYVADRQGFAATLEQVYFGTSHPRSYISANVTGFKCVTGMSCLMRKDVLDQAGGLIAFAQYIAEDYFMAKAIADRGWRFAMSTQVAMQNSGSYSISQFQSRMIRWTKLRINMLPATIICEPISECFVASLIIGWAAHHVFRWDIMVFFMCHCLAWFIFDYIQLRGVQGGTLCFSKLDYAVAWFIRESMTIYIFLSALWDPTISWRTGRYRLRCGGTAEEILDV
# Description: GCS Inhibition in MDCK Cell Homogenates (Lysate IC50, Table 1)
# IC50 values for new compounds of the invention were determined as reported in Shayman J. A., Abe A. 2000. Glucosylceramide synthase: assay and properties. Methods Enzymol.311: 42-49.
# GCS in MDCKII cells = biological target: T2, GCS in MDCKII cells (Canis lupus familiaris, UniProt A0A8I3MXG6); test: GCS inhibition in MDCKII cells (glucosylceramide content after 24 h); assay type: cell-based, canine
# T2 construct: whole cellular lipids of wild type MDCKII cells were extracted; endogenous in cells; host or cells: wild type MDCKII cells
# T2 sequence (A0A8I3MXG6 1-394): T1 sequence (A0A8I3MXG6 1-394)
# Description: GCS Inhibition in MDCKII Cells (MDCKII IC50, Table 1)
# MDCKII cells were routinely maintained in medium consisting of Opti-MEM/F12 (1:1), 5% FBS, 100 U/mL of penicillin, 100 µg/mL streptomycin and 200 mM L-glutamine. MDCKII cells were newly thawed from frozen ampules every two months.
# Stock solutions of water-insoluble glycosphingolipid inhibitors (100 mM) were prepared by dissolving each inhibitor into 100% ethanol as previously described (3). The inhibitor-ethanol solutions then were diluted 50X into 2 mM delipidated bovine serum albumin-phosphate buffered saline solution to make water-soluble glycosphingolipid inhibitor-bovine serum albumin complexes. The inhibitor-bovine serum album complexes were sterile-filtered and stored at -20° C. Prior to use, portions of the inhibitor-bovine serum albumin complexes were further diluted with Opti-F12 to make treatment solutions. Equal amounts of bovine serum albumin and ethanol were added into the control cultures. Cells (5 x 10^5) were seeded into 10-cm culture dishes containing 10 ml of Opti-F12 with 5% FBS. After 24 hours, the medium was replaced with fresh serum-free Opti-F12 medium, and cells were exposed to candidate GCS inhibitors at concentrations of 0, 1, 3, 10, 30, 100 and 300 nM for 24 hours.
# Following inhibitor treatment, whole cellular lipids of wild type MDCKII cells were extracted as previously described in detail (10). Briefly, cells were washed with ice-cold phosphate buffered saline, fixed by methanol, and collected with rubber scraper. Chloroform was then added to yield a theoretical ratio of chloroform:methanol:water at 1:2:0.8 (v/v/v) to form a mono-phase. Cell debris and proteins were removed by centrifugation at 2200 x g for 30 min. The supernatants were portioned by adding chloroform and 0.9% NaCl. The lower organic phases containing neutral glycosphingolipids lipids were washed with methanol and 0.9% NaCl, and subjected to base- and acid-hydrolysis (10). A portion of purified glycosphingolipids normalized to 100 nmol of total phospholipids was analyzed by high performance thin layer chromatography. The thin layer chromatography separations were processed twice. The plate pretreated with 1% sodium borate was first developed in a solvent system consisting of chloroform/methanol (98/2, v/v). After air drying, the plate was then developed in a solvent system containing chloroform/methanol/water (70/30/4, v/v/v). The levels of glucosylceramide were detected by charring with 8% cupric sulfate in 8% phosphoric acid, and quantified by densitometric scanning using ImageJ, NIH Image. Image data was analyzed, and the IC50 of each inhibitor was calculated using GraphPad Prism (version 5.03).
# [2] = system: glucosylceramide (GlcCer) in brain and liver; test: Reduction of brain and liver glucosylceramide in CBE mice; assay type: in vivo; details: 14 days, D409V/null mice with CBE 25 mg/kg/day ip
# Description: The in vivo assay measured the reduction in brain and liver glucosylceramide and glucosylsphingosine levels in mice on a D409V background concurrently treated with conduritol B epoxide (CBE), an irreversible inhibitor of GBA (beta-glucocerebrosidase).
# Reduction of Brain and Liver Glucosylceramide and Glucosylsphingosine in CBE Mice
# The reduction by inhibitors of GCS in brain glucosylceramide and glucosylsphingosine content was determined by the use of mice with Gba 1 mutant alleles, termed D409V/null. These are knock-in mice with a Gba 1 point mutation encoding Valine (V) 409 for the wild type (WT) Aspartate (D) on one missense allele and a null heteroallele [D409V/null (9V/null)]. The D409V/null and WT littermates were of mixed gender and mixed, but matched, genetic backgrounds of C57BL/129Sv/FVB. […] Mice were concurrently treated with GCS inhibitor or vehicle control for 14 days. The mice were sacrificed 2 hours following the last injection and tissues including brain, liver, spleen, kidney and lung were analyzed for glucosylceramide and glucosylsphingosine by mass spectrometry.
# Mouse Tissue Lipid Analysis
# Lipid extractions of liver, kidney, and brain were performed as previously described (7). Briefly, frozen liver (about 0.5 g), two kidneys (about 0.3 g) and whole brain (about 0.4 g) were individually homogenized in sucrose buffer (250 mM sucrose, pH 7.4, 10 mM HEPES and 1 mM EDTA), at 0.2 g tissue/1 mL of sucrose buffer, with a Tri-R homogenizer. Each 0.8 mL of homogenate was mixed with 2 mL of methanol and 1 mL of chloroform, bath sonicated for 1 min and incubated at room temperature for 1 h. Tissue debris were removed by centrifugation at 2.400 x gravity for 30 min. The pellets were reextracted by mixing with 1 mL of methanol, 0.5 mL of chloroform and 0.4 mL of 0.9% NaCl (chloroform/methanol/0.9% NaCl, 1:2:0.8), incubated at room temperature for 1 h and centrifuged at 2.400 x gravity for another 30 min. Two extracts were combined and mixed with 4.5 mL of chloroform and 1.2 mL of 0.9% NaCl (chloroform/methanol/0.9% NaCl, 2:1:0.8). After centrifugation at 800 x gravity for 5 min, lower layer was washed with 3 mL of methanol and 2.4 mL of 0.9% NaCl. Second washing was carried with 3 mL of methanol, 2 mL of water and 0.4 mL of 0.9% NaCl followed by a 5 min centrifugation at 800 x gravity. The resultant lower phase was collected and dried under a stream of N2 gas.
# The analysis of neutral glycosphingolipids from mouse liver, kidney, and brain was processed after alkaline methanolysis. Kidney lipids were incubated with 2 mL of chloroform and 1 ml of 0.21 N NaOH in methanol for 2 h (kidney) or 7.5 h (liver and brain) at RT. […] GlcCer levels were quantified by comparison to known standards.
# [3] = Pharmacokinetics in mice: plasma and brain drug AUC; assay type: in vivo; details: over 7 hrs following single IP injection at 10 mg/kg; for Kp / AUC: mouse; for Kp: brain/plasma; for AUC: plasma
# [4] = 24 hours exposure, glucosylceramide level
SMILES,Kp [3],AUC [3],Brain drug AUC [3],"IC50 (GCS in MDCKII cells; cell marked 'rac': value of the racemate, 24 hours)",Plasma drug AUC [3],IC50 [1],IC50 (GCS in MDCKII cells; [4]),CBE mouse GlcCer reduction in brain ([2]; dose 100 µmol/kg),CBE mouse GlcCer reduction in liver ([2]; dose 100 µmol/kg),CBE mouse GlcCer reduction in brain ([2]; dose 72 µmol/kg),CBE mouse GlcCer reduction in liver ([2]; dose 72 µmol/kg)
"CC(C)(C)Oc1ccc([C@@H](O)[C@@H](CN2CCCC2)NC(=O)CC2Cc3ccccc3C2)nc1 [Example 17, N-((1S,2R)-1-(5-(tert-butoxy)pyridin-2-yl)-1-hydroxy-3-(pyrrolidin-1-yl)propan-2-yl)-2-(2,3-dihydro-1H-inden-2-yl)acetamide]",0.34,902 ng·h/mL,308 ng·h/g,–,–,11.3 nM,4.6 nM,23%,34%,–,–
"CC(C)(C)Oc1ccc([C@@H](O)[C@@H](CN2CCCC2)NC(=O)CC2Cc3ccc(F)cc3C2)nc1 (stereo partly drawn) [Example 24, N-((1S,2R)-1-(5-(tert-butoxy)pyridin-2-yl)-1-hydroxy-3-(pyrrolidin-1-yl)propan-2-yl)-2-(5-fluoro-2,3-dihydro-1H-inden-2-yl)acetamide]",–,–,–,–,–,568 nM,23.8 nM,–,–,–,–
"O=C(CC1Cc2ccccc2C1)N[C@H](CN1CCCC1)[C@H](O)c1cc(Cl)ccn1 [Example 25, N-((1S,2R)-1-(4-chloropyridin-2-yl)-1-hydroxy-3-(pyrrolidin-1-yl)propan-2-yl)-2-(2,3-dihydro-1H-inden-2-yl)acetamide]",0.17,1040 ng·h/mL,173 ng·h/g,–,–,36.4 nM,–,–,–,30%,36%
O=C(CC1Cc2ccccc2C1)N[C@H](CN1CCCC1)[C@H](O)c1cccc(Cl)c1 [reference compound],0.72,–,1109 ng·h/g,–,–,–,–,–,–,–,–

# Further lines, with some results ahead:
Kp [3],AUC [3],Brain drug AUC [3],"IC50 (GCS in MDCKII cells; cell marked 'rac': value of the racemate, 24 hours)",Plasma drug AUC [3],SMILES,IC50 [1],IC50 (GCS in MDCKII cells; [4]),CBE mouse GlcCer reduction in brain ([2]; dose 100 µmol/kg),CBE mouse GlcCer reduction in liver ([2]; dose 100 µmol/kg),CBE mouse GlcCer reduction in brain ([2]; dose 72 µmol/kg),CBE mouse GlcCer reduction in liver ([2]; dose 72 µmol/kg)
0.35,1120 ng·h/mL,398 ng·h/g,6.5 nM,–,"O=C(CC1Cc2ccccc2C1)N[C@H](CN1CCCC1)[C@H](O)c1ccc(OC(F)(F)F)cn1 [Example 21, 2-(2,3-dihydro-1H-inden-2-yl)-N-((1S,2R)-1-hydroxy-3-(pyrrolidin-1-yl)-1-(5-(trifluoromethoxy)pyridin-2-yl)propan-2-yl)acetamide]",77 nM,–,–,–,–,–
0.58,1070 ng·h/mL,619 ng·h/g,–,–,CC(C)(C)Oc1ccc([C@@H](O)[C@@H](CN2CCCC2)NC(=O)CC2Cc3ccccc3C2)cc1 [reference compound],–,–,–,–,–,–
0.8,–,1046 ng·h/g,–,1308 ng·h/mL,O=C(CC1Cc2ccccc2C1)N[C@H](CN1CCCC1)[C@H](O)c1ccc(OC(F)(F)F)cc1 [reference compound],–,–,–,–,–,–
